Measured values as given in patent US20250375452A1 (AMGEN INC., priority 2021, published 2025).

Experiments:
[1] = Phase 1 fixed-sequence study, sotorasib with rifampin; format: in vivo, human
[2] = Phase 1 fixed-sequence study, sotorasib with omeprazole under fasted conditions; format: in vivo, human
[3] = Phase 1 fixed-sequence crossover study, sotorasib with famotidine or omeprazole under fed conditions; format: in vivo, human; conditions: for decrease of sotorasib AUC / decrease of sotorasib Cmax: fed conditions
Procedure: Safety and tolerability monitoring was performed throughout the study.
A total of […] healthy subjects (1 woman and 13 men) were enrolled in the study. Thirteen out of the 14 subjects received all treatments and completed the study.

[4] = test system: extracellular signal-regulated kinase (ERK); conditions: preclinical studies; cited from earlier work
[5] = Phase 1 fixed-sequence study, digoxin with sotorasib; format: in vivo, human
Procedure: Blood samples for digoxin PK were collected predose and up to 144 hours post-digoxin dose. Samples were measured using validated high-performance liquid chromatography tandem mass spectrometry methods.

[6] = Phase 1 fixed-sequence study, midazolam with sotorasib; conditions: 2 mg midazolam coadministered with 960 mg sotorasib after 14 days of daily sotorasib vs midazolam alone, 5 subjects
[7] = coadministration with omeprazole vs sotorasib alone, fasted state
[8] = famotidine 10 hours prior to and 2 hours after a single dose of sotorasib
[9] = repeat doses of omeprazole with a single dose of sotorasib
[10] = coadministration with a single dose of sotorasib vs digoxin alone
[11] = with sotorasib vs digoxin alone

SMILES: C=CC(=O)N1CCN(c2nc(=O)n(-c3c(C)ccnc3C(C)C)c3nc(-c4c(O)cccc4F)c(F)cc23)[C@@H](C)C1 (atropisomer, axis not shown) [sotorasib, 6-fluoro-7-(2-fluoro-6-hydroxyphenyl)-(1M)-1-[4-methyl-2-(propan-2-yl)pyridin-3-yl]-4-[(2S)-2-methyl-4-(prop-2-enoyl)piperazin-1-yl]pyrido[2,3-d]pyrimidin-2(1H)-one]
- safety and tolerability ([1]; coadministered with 600 mg rifampin or administered alone, healthy subjects): safe and well tolerated
- CYP3A4 substrate status ([1]; inferred from multiple doses of rifampin, consistent with in vitro data): is a CYP3A4 substrate
- OATP1B1 substrate status ([1]; inferred from single dose of rifampin): not a substrate of OATP1B1
- decrease of sotorasib AUCinf ([1]; multiple doses of rifampin): 51%
- decrease of sotorasib Cmax ([1]; multiple doses of rifampin): 35%
- safety and tolerability ([2]; coadministered with 40 mg omeprazole or administered alone, healthy subjects): safe and well tolerated
- decrease of sotorasib AUCinf [2, 7]: 42%
- decrease of sotorasib Cmax [2, 7]: 57%
- Mean terminal half-life (t1/2), coadministration compared to alone ([2]; with omeprazole vs sotorasib alone, fasted): similar
- safety and tolerability ([3]; 960 mg sotorasib with single dose 40 mg famotidine and after multiple daily 40 mg omeprazole, fed, healthy subjects): safe and well tolerated
- decrease of sotorasib AUC [3, 8]: 38%
- decrease of sotorasib Cmax [3, 8]: 35%
- decrease of sotorasib AUC [3, 9]: 57%
- decrease of sotorasib Cmax [3, 9]: 65%
- phosphorylation of extracellular signal-regulated kinase (ERK) [4]: inhibited nearly all detectable phosphorylation

SMILES: C[C@H]1O[C@@H](O[C@H]2[C@@H](O)C[C@H](O[C@H]3[C@@H](O)C[C@H](O[C@H]4CC[C@@]5(C)[C@H](CC[C@@H]6[C@@H]5C[C@@H](O)[C@]5(C)[C@@H](C7=CC(=O)OC7)CC[C@]65O)C4)O[C@@H]3C)O[C@@H]2C)C[C@H](O)[C@@H]1O [digoxin]
- increase of digoxin AUCinf [5, 10]: approximately 21%
- increase of digoxin Cmax [5, 10]: ~91%
- safety and tolerability ([5]; single doses of 0.5 mg digoxin alone or coadministered with 960 mg sotorasib): safe and well tolerated
- Digoxin mean terminal half-life (t1/2), coadministration compared to alone [5, 11]: similar
- Digoxin median time to maximal plasma concentration (tmax), coadministration compared to alone [5, 11]: similar

SMILES: Cc1ncc2n1-c1ccc(Cl)cc1C(c1ccccc1F)=NC2 [midazolam]
- decrease of midazolam AUV [6]: 53%
- decrease of midazolam Cmax [6]: 48%
